The text below walks through data of the NIST ThermoML archive (doi:10.1021/je500050p).

SMILES strings stand for the structures. ± gives the expanded uncertainty stated by the source.

The conditions of data set [1]: 101.33 kPa, Liquid, Vibrating tube method.
Data set [2] in a line: activity coefficient (dimensionless); of the first substance listed, at infinite dilution; xn = mol fraction of the nth substance listed. Particulars: 101 kPa, Liquid, Chromatography, x1 = 0.

For `CCCCCCCCCCCCCC[N+](CCCCCC)(CCCCCC)CCCCCC.C[C@H](O)C(=O)[O-]` [N,N,N-trihexyl-1-tetradecanaminium (2S)-2-hydroxypropanoate], the mass density was 894.8 ± 0.3 kg/m3 in data set [1] (298.55 K), 885.7 ± 0.3 kg/m3 in data set [1] (313.45 K), 879.9 ± 0.3 kg/m3 in data set [1] (323.45 K) and 874.5 ± 0.3 kg/m3 in data set [1] (333.25 K).
With `CC1(C)[C@@H]2CC[C@@]1(CS(=O)(=O)[O-])C(=O)C2.CCCCCCCCCCCCCC[N+](CCCCCC)(CCCCCC)CCCCCC`, the mass density in data set [1] (298.55 K) came out at 963.8 ± 0.3 kg/m3; in data set [1] (313.45 K) it was 953.4 ± 0.3 kg/m3; in data set [1] (323.45 K), 946.1 ± 0.3 kg/m3; in data set [1] (333.25 K), 939.1 ± 0.3 kg/m3.
Take `Cc1ccccc1` [toluene] + CC1(C)[C@@H]2CC[C@@]1(CS(=O)(=O)[O-])C(=O)C2.CCCCCCCCCCCCCC[N+](CCCCCC)(CCCCCC)CCCCCC: the activity coefficient amounted to 0.41 ± 0.03 in data set [2] (323.15 K), 0.63 ± 0.04 in data set [2] (333.15 K) and 0.88 ± 0.06 in data set [2] (343.15 K).

One may read the mass density as mass per unit of volume.
